Entries after “also recorded” stand apart in the source; their conditions may differ.
Experiments:
ST-HSC / LT-HSC activity = assay: Colony Forming Unit-Spleen (CFU-S) assay; format: in vivo, mice
Description: FIG. 13A show CFU-S images of selected spleens after fixation. FIGS. 13B and 13C are graphs showing quantification of colonies per spleen at days 8 (FIG. 13B) and 10 (FIG. 13C) after transplantation.
ST vs LT-HSC activity can also be quantified by the in vivo clonogenic Colony Forming Unit-Spleen (CFU-S) assay, where day 8 CFU-S is closely associated with ST-HSC, while day 10-12 CFU-S are associated with LT-HSC activity.

[1] = test system: lethally irradiated recipient mice; assay: Survival of lethally irradiated recipients of suboptimal BMMC from treated donors; format: in vivo
Description: FIGS. 14A and 14B are graphs showing survival analysis by the method of Kaplan-Meyer in lethally irradiated recipients of suboptimal BMMC (1.5×10^5 donor BMMC (A) and 0.75×10^5 donor BMMC (B)) from vehicle or PGE2-treated donors.
Moreover, since ST-HSC confer radioprotection, PGE2-dependent ST-HSC expansion would be expected to improve survival of lethally irradiated recipients receiving limiting numbers of BMMC from PGE2 vs vehicle-treated mice. To test this hypothesis, adult C57Bl/6 donor mice were treated with PGE2 or vehicle prior to bone marrow harvest. Recipient mice received myeloablative doses of radiation and suboptimal BMMC numbers (FIGS. 14A and 14B).

[2] = test system: intermediate progenitors of hematopoietic stem cells; assay: Colony forming unit-cell (CFU-C) assay of bone marrow mononuclear cells from treated mice; format: in vivo
Description: (§1) FIG. 8 is a graph showing that intermediate progenitors of hematopoietic stem cells are not increased by PGE2 treatment. Therefore, PGE2 specifically increases HSCs. The bone marrow mononuclear cells from mice treated with vehicle and PGE2 using colony forming unit-cell (CF-C) activity in vitro. […] Peripheral white blood cell and hematocrit levels were not changed in PGE2 vs. vehicle treated mice at 16 days (WBC counts: vehicle averaged 5.75±0.20×10^3/μl; PGE2 averaged 4.72±0.61×10^3/μl) (Hematocrit: vehicle averaged 42±1%; PGE2 averaged 43±2%) (n=6 for each treatment group).
(§2) FIG. 8 is a graph showing that intermediate progenitors of hematopoietic stem cells are not increased by PGE2 treatment. Therefore, PGE2 specifically increases HSCs. The bone marrow mononuclear cells from mice were treated with vehicle and PGE2 to determine if there was an increase in intermediate progenitors in response to PGE2 using the colony forming unit-cell (CFU-C) assay. […] In addition, peripheral white blood cell and hematocrit levels were not changed in PGE2 vs. vehicle treated mice at 16 days (WBC counts: vehicle averaged 5.75±0.20×10^3/μl; PGE2 averaged 4.72±0.61×10^3/μl) (Hematocrit: vehicle averaged 42±1%; PGE2 averaged 43±2%) (n=6 for each treatment group).
The opposite limb of the same mice was used for flow cytometric analysis, in vitro progenitor CFU-C assays and competitive repopulation. […]

[3] = parameters: species or system mice; conditions: mouse, in vivo
Description: as §1, §2

HSC subsets = assay: LSK subset analysis based on Flt3 and Thy1.1 expression; format: in vivo, mice
Procedure: FIGS. 12A and 12B are representative plots of flow cytometric strategy of LSK subset from bone marrow of individual vehicle and PGE2-treated mice, numbers in the quadrant represent percentage of LSK.
To further confirm this targeted PGE2 effect, LSK subset analysis based on Flt3 and Thy1.1 expression was performed. […] (n=4 per treatment group).

hematopoietic stem cells = assay: HSC frequency by flow cytometric analysis of lin-, sca+, kit+ (LSK/KSL) bone marrow cells; format: in vivo, mice
Procedure: FIG. 7A is a graph showing KSL frequency at 4 days. FIG. 7B is a graph showing KSL frequency at 8 days. FIG. 7C is a graph showing KSL frequency at 12 days. FIG. 7D is a graph showing KSL frequency at 16 days.
FIG. 9 is a graph showing the percent of HSCs in total bone marrow following in vivo administration of PGE2 in C57bl/6 mice. Eight to ten week old WT C5bl/6 mice given IP injections twice daily for 16 days of either 6 mg/kg PGE2 or vehicle (n=4 for each group). The left hind limb of each mouse was harvested, the bone marrow flushed out and the cells stained with lineage markers, sca-1 and c-kit. DAPI was used for a viability stain. The lin−, sca+, kit+ population was gated using FlowJo software for both PGE2 treated and vehicle treated samples. There was a 66% increase in lin−, sca+, kit+ (LSK) cells in PGE2 vs. vehicle treated mice (p=0.0093). As used herein, LSK and KSL frequency are used interchangeably.
Eight to ten week old FVB/N male mice were injected intraperitoneally once or twice daily for 16 days with either PGE2 (6 mg/kg body weight) or vehicle. Left hind limbs were harvested, fixed, decalcified, and processed. Right hindlimbs were harvested at the same time. The bone marrow was flushed and stained for FACS analysis with scal, ckit, and lineage marker antibodies.
In order to determine if the number of HSCs was increased in vivo by PGE2, eight to ten week old FVB/N mice were given daily IP injections for 16 days of either 6 mg/kg PGE2 or Vehicle. The left hind limb of each mouse was harvested, the bone marrow was flushed out, and the cells were stained with lineage markers, sca-1 and c-kit. DAPI was used for a viability stain. The lin−sca+ckit+population was gated using FlowJo software (FlowJo, Ashland, Oreg.) for both PGE2 treated and VEH treated samples. […] The same procedure was performed on C57bl/g mice.

For `CCCCC[C@H](O)/C=C/[C@H]1[C@H](O)CC(=O)[C@@H]1C/C=C\CCCC(=O)O` [PGE2, Prostaglandin E2], the CFU-Sd8 (ST-HSC / LT-HSC activity; day 8, BMMC from treated mice, n=4, p=0.0053) was 10.5 CFU-S per 60,000 BMMC, the CFU-Sd10 (ST-HSC / LT-HSC activity; day 10, BMMC from treated mice, n=6, p=0.4950) was 12.5 CFU-S per 60,000 BMMC and the “survival 30 days after transplantation” value ([1]; 75,000 donor cells from treated donors, p=0.0173) was 53%. The “survival 30 days after transplantation” value ([1]; 150,000 donor cells from treated donors, p=0.0018) was 80%, the CFU-C frequency ([2]; BMMC from C57Bl/6 mice treated 16 days, Example 2) was “No evidence of PGE2 effects” and the CFU-C frequency ([2]; BMMC from treated mice, Example 1) was “did not increase”. For the same molecule, the Hematocrit [3] was 43±2%, the peripheral platelets [3] was “not changed” and the “MPP (Flt3+Thy1.1- LSK) quantification from bone marrow” value (HSC subsets; n=4, p 0.007 vs vehicle) was 0.0305 ± 0.002398. The “ST-HSC (Flt3+Thy1.1int LSK) quantification from bone marrow” value (HSC subsets; n=4, p 0.0307 vs vehicle) was 0.02725 ± 0.003568, the “LT-HSC (Flt3−Thy1.1int LSK) quantification from bone marrow” value (HSC subsets; n=4, p 0.1069 (NS) vs vehicle) was 0.01264 ± 0.002233 and the “increase in lin−, sca+, kit+ (LSK) cells vs. vehicle” value (hematopoietic stem cells; C57bl/6 mice, 6 mg/kg IP twice daily for 16 days, n=4) was 66%. For the same molecule, the “percent of HSCs (KSL) in total bone marrow” value (hematopoietic stem cells; FVB/N mice, 6 mg/kg IP daily, 4 to 16 days, vs vehicle, 6 mg/kg) was “trend towards an increase; also recorded: increased significantly” and the “increase of HSC enriched LSK subpopulation” value (hematopoietic stem cells; adult C57Bl/6 male mice, 16 days, n=8 per group) was 3.5 fold.

— US9394520B2, “Expansion of hematopoietic stem cells” (University of Rochester, priority 2006, dated 2016)
